Where two headings read alike, the source gives them in different places. *1 amine or outer side, *2 acyl side, *3 side chain or, on linkers, in order; H or OH if unused. Where a SMILES comes first, the peptide text is derived from it. [ ]: non-standard residue; d: D form. The star is where a group is joined. hPhe = N[CH](CCc1ccccc1)C(=O)O; Morpholide = C1CN(*)CCO1; CO = O=C([*:1])[*:2]; CH2F = FC*
Tested on: PC12/HttN90Q103 cells
Test: ATPlite assay, rescue of HttN90Q103-induced cell death
Assay type: cell-based, rat
Text: In this stable PC12 line (PC12/HttN90Q103), transcription of the Htt transgene is driven by an ecdysone-regulated promoter such that the expression of HttN90Q103 can be turned on or off by the addition or removal of the non-steroidal ecdysone analog tebufenozide (teb).
Using the engineered PC12/HttN90Q103 cell line together with Perkin Elmer's ATPlite™ assay kit or CellTiter-Blue™ assay, a high throughput assay to screen small molecules for their ability to prevent mutant Htt exon 1-induced cell death was developed and optimized.
The following formulas were used to calculate mutant Htt-induced cytotoxicity and test compound rescue: % killing=[(un-induced−induced-DMSO treated)/un-induced]×100 % rescue=[(drug treated−induced-DMSO treated)/(un-induced−induced-DMSO treated)]×100
For single-agent ranking, the assay was performed in 384-well plates to obtain duplicate dose response curves in 12-step dilutions with a dosing ratio f=2 over 3 orders of magnitude. […]
Day 1—Add Compounds 4 hours post-induction • 1) Remove compound plates from dessicator. • 2) Using the PlateMate, prepare dilution plate with 100 μL per well of the complete cell medium at room temperature in clear untreated 384-well plates. • 3) Using the MiniTrak, make compound dilution plates: 1 μL from each well of stock plates into 100 μL of media in the dilution plate for a 1:100 dilution (10× stock in media). • 4) Using the MiniTrak, add 4.5 μL of the diluted stock to each well of cells in assay plates. • 5) Make positive control solution: dilute 20 mM stock of BOC-D-FMK in media for a 10× stock. • 6) Manually add 4.5 μL positive control to C1-N1. • 7) Incubate plates at 37° C. for three days. • (for ranking combinations, steps 5 and 6 are omitted as there is positive control on the compound plates)
Day 4—Perform ATPlite™ Assay • 1) Take plates out of the incubator. • 2) Using the PlateMate, add 40 μL of ATPlite™ 1-step solution (Perkin Elmer) to each well of the assay plates. • 3) Wait ten minutes to allow plates to dark-adapt. • 4) Read luminescence intensity in Wallac plate reader using […]

[1] = ATPlite, single agent, 250 nM tebufenozide induction
[2] = ATPlite, single agent, sigmoidal fit of 12-step dose response, read-out: EC50
[3] = Rattus norvegicus, PC-12, ATPlite, single agent, 250 nM tebufenozide induction, read-out: Max Effect (% rescue)
[4] = Rattus norvegicus, PC-12, ATPlite, single agent, sigmoidal fit of 12-step dose response, read-out: EC50
[5] = Rattus norvegicus, PC-12, read-out: Max Effect (% rescue)

N[C@@H]1C[C@H]1c1ccccc1 (racemic) [Tranylcypromine]
Max Effect (% rescue) [1]: 16%
EC50 [2]: 2.2 µM

CC1CNCCN1S(=O)(=O)c1cccc2cnccc12 (centres unmarked) [1-(5-isoquinolinesulfonyl)-2-methylpiperazine]
Emax [3]: 28%
EC50 [4]: 15.5 µM

OC[C@H]1O[C@@H](n2cnc3cc(Cl)c(Cl)cc32)[C@H](O)[C@@H]1O [5,6-dichloro-1-β-D-ribofuranosylbenzimidazole]
EC50 (Rattus norvegicus, PC-12): 5.1 µM
Emax [5]: 26%

Nc1ncnc2c1c(I)cn2[C@@H]1C[C@H](N)[C@@H](O)[C@H]1O [Agent A-134974, N^7-[(1′R,2′S,3′R,4′S)-2′,3′-dihydroxy-4′-aminocyclopentyl]-4-amino-5-iodopyrrolopyrimidine]
Max Effect (% rescue) [1]: 22%
EC50 [2]: 13.3 µM

O=C1Cc2c([nH]c3ccc([N+](=O)[O-])cc23)-c2ccccc2N1 [Alsterpaullone]
Emax [3]: 64%
EC50 [4]: 1.8 µM

CC(C)c1ccc2oc3nc(N)c(C(=O)O)cc3c(=O)c2c1 [Amlexanox]
EC50 (Rattus norvegicus, PC-12): 5.7 µM
Emax [5]: 18%

CCN(CC)Cc1cc(Nc2ccnc3cc(Cl)ccc23)ccc1O [Amodiaquine]
Emax [3]: 62%
EC50 [4]: 12.3 µM

C[C@]12CCC(=O)C[C@@H]1CC[C@@H]1[C@@H]2CC[C@]2(C)[C@@H](O)CC[C@@H]12 [Androstanolone]
EC50 (Rattus norvegicus, PC-12): 8 µM
Emax [5]: 15%

O=C(CF)C(CCc1ccccc1)NC(=O)C(Cc1ccccc1)NC(=O)N1CCOCC1 (centres unmarked) [BML-248, N-morpholineurea-phenylalanyl-homophenylalanylfluoromethyl ketone] ({Morpholide-CO}-Phe-[hPhe]-CH2F; configuration not given here)
Max Effect (% rescue) [1]: 24%
EC50 [2]: 7.1 µM

O=C(NO)c1ccccc1 [Benzohydroxamic acid]
Emax [3]: 15%
EC50 [4]: 6.9 µM

CCCC(=O)Nc1ncnc2c1ncn2[C@@H]1O[C@@H]2COP(=O)(O)O[C@H]2[C@H]1OC(=O)CCC [Bucladesine]
Emax [3]: 18%
EC50 [4]: 19.6 µM

COC(=O)CC(NC(=O)OC(C)(C)C)C(=O)CF [Caspase inhibitor III (BOC-D-fmk)]
% rescue (20 μM, positive control, 72 hours following tebufenozide induction): More than 50%
Max Effect (% rescue) [1]: 119%
EC50 [2]: 3.9 µM

CC1=C(O)C(=O)C=C2C1=CC=C1[C@@]2(C)CC[C@@]2(C)[C@@H]3C[C@](C)(C(=O)O)CC[C@]3(C)CC[C@]12C [Celastrol]
EC50 (Rattus norvegicus, PC-12): 0.3 µM
Emax [5]: 19%

CCN(CC)CCCC(C)Nc1ccnc2cc(Cl)ccc12 (centres unmarked) [Chloroquine]
EC50 (Rattus norvegicus, PC-12): 9.7 µM

N=C(N)c1ccc(/N=N/Nc2ccc(C(=N)N)cc2)cc1 [Diminazene]
Emax [3]: 35%
EC50 [4]: 5.6 µM

CCCC(CCC)C(=O)O [Divalproex]
Emax [3]: 19%
EC50 [4]: 15.2 µM

O=S(=O)(c1cccc2cnccc12)N1CCCNCC1 [Fasudil]
Emax [3]: 26%
EC50 [4]: 9.9 µM

O=c1c(O)c(-c2ccc(O)c(O)c2)oc2cc(O)ccc12 [Fisetin]
Emax [3]: 52%
EC50 [4]: 12.4 µM

C=C[C@@]1(C)CC(=O)[C@]2(O)[C@@]3(C)[C@@H](O)CCC(C)(C)[C@@H]3[C@H](O)[C@H](OC(C)=O)[C@@]2(C)O1 [Forskolin]
Emax [3]: 18%
EC50 [4]: 0.2 µM

CCN(CCO)CCCC(C)Nc1ccnc2cc(Cl)ccc12 (centres unmarked) [Hydroxychloroquine]
Emax [3]: 29%
EC50 [4]: 5.2 µM

NC(=O)NO [Hydroxyurea]
Emax [3]: 22%
EC50 [4]: 7.5 µM

O=C(Nc1cccc(C2=NCCN2)c1)Nc1cccc(C2=NCCN2)c1 [Imidocarb]
Emax [3]: 24%
EC50 [4]: 15.9 µM

O=C1Nc2ccccc2/C1=C1/Nc2ccccc2/C1=N\O [Indirubin-3′-monooxime]
Max Effect (% rescue) [1]: 30%
EC50 [2]: 2.4 µM

O=C(/C=C/c1ccc(O)cc1)c1ccc(O)cc1O [Isoliquiritigenin]
Emax [3]: 27%
EC50 [4]: 12.5 µM

O=c1c(O)c(-c2ccc(O)cc2)oc2cc(O)cc(O)c12 [Kaempferol]
Emax [3]: 15%
EC50 [4]: 12.2 µM

O=C1Cc2c([nH]c3ccc(Br)cc23)-c2ccccc2N1 [Kenpaullone]
Emax [3]: 87%
EC50 [4]: 4.7 µM

CC(C=NNC(=N)N)=NNC(=N)N [Methylglyoxal bis(guanylhydrazone)]
Emax [3]: 79%
EC50 [4]: 7.7 µM

CCCCC1C(=O)NN(c2ccccc2)C1=O (centres unmarked) [Mofebutazone]
Emax [3]: 19%
EC50 [4]: 5.6 µM

CC[C@@H](C(=O)O)[C@@H]1O[C@@H]([C@@H](C)[C@H](O)[C@H](C)C(=O)[C@H](CC)[C@H]2O[C@]3(C=C[C@@H](O)[C@]4(CC[C@@](C)([C@H]5CC[C@](O)(CC)[C@H](C)O5)O4)O3)[C@H](C)C[C@@H]2C)[C@@H](C)C[C@@H]1C [Narasin]
Emax [3]: 15%
EC50 [4]: 0.1 µM

CO[C@@H]1C[C@@H](C[C@H]2CC[C@H](C)[C@H]([C@@H](C)C(=O)O)O2)O[C@]2(O[C@](C)([C@H]3CC[C@@](C)([C@@H]4O[C@@H]([C@H]5O[C@@](O)(CO)[C@H](C)C[C@@H]5C)C[C@@H]4C)O3)C[C@H]2C)[C@@H]1C [Nigericin]
Emax [3]: 36%

O=C1Nc2ccc3ncsc3c2/C1=C/c1cnc[nH]1 [PKR inhibitor]
Max Effect (% rescue) [1]: 124%
EC50 [2]: 1.2 µM

Cc1ncc(CSSCc2cnc(C)c(O)c2CO)c(CO)c1O [Pyritinol]
Emax [3]: 17%
EC50 [4]: 15.1 µM

CC(=O)C(=O)O [Pyruvate]
Emax [3]: 5%
EC50 [4]: 1.2 µM

CC(C)[C@H](NC(=O)c1ccc2ccccc2n1)C(=O)N[C@@H](CC(=O)O)C(=O)COc1c(F)cccc1F [Q-VD-OPH]
Max Effect (% rescue) [1]: 72%
EC50 [2]: 0.6 µM

O=c1c(O)c(-c2ccc(O)c(O)c2)oc2cc(O)cc(O)c12 [Quercetin]
Emax [3]: 23%
EC50 [4]: 16.4 µM

CN(CCOc1ccc(CC2SC(=O)NC2=O)cc1)c1ccccn1 (centres unmarked) [Rosiglitazone]
Emax [3]: 13%
EC50 [4]: 8.5 µM

COc1ccc2c(c1)/C(=C/c1cnc[nH]1)C(=O)N2 [SU9516, 3-[1-(3H-imidazol-4-yl)-meth-(Z)-ylidene]-5-methoxy-1,3-dihydro-indol-2-one]
Emax [3]: 66%
EC50 [4]: 3.3 µM

CC[C@@H](C(=O)[C@@H](C)[C@@H](O)[C@H](C)[C@@H]1O[C@@H]([C@@H](CC)C(=O)O)CC[C@@H]1C)[C@H]1O[C@]2(C=C[C@@H](O)[C@]3(CC[C@@](C)([C@H]4CC[C@](O)(CC)[C@H](C)O4)O3)O2)[C@H](C)C[C@@H]1C [Salinomycin]
EC50 (Rattus norvegicus, PC-12): 0.2 µM
Emax [5]: 24%

CC(=O)S[C@@H]1CC2=CC(=O)CC[C@]2(C)[C@H]2CC[C@@]3(C)[C@@H](CC[C@@]34CCC(=O)O4)[C@H]12 [Spironolactone]
Emax [3]: 22%
EC50 [4]: 9.1 µM

c1ccc(CN(CCN(Cc2ccccn2)Cc2ccccn2)Cc2ccccn2)nc1 [TPEN, N,N,N′,N′-tetrakis(2-pyridylmethyl)-ethylenediamine]
Emax [3]: 15%
EC50 [4]: 3 µM

Nc1c2c(nc3ccccc13)CCCC2 [Tacrine]
Emax [3]: 15%
EC50 [4]: 39.6 µM

NC1CCN(c2nc3c(cc2F)c(=O)c(C(=O)O)cn3-c2ccc(F)cc2F)C1 (centres unmarked) [Tosufloxacin]
Emax [3]: 20%
EC50 [4]: 9.9 µM

N#C/C(=C\c1ccc(O)c(O)c1)C(N)=O [Tyrphostin 46]
Max Effect (% rescue) [1]: 23%
EC50 [2]: 23.5 µM

CC(=O)ON=C1C(=O)N(Cc2cc(Cl)ccc2Cl)c2ccc(Cl)cc21 [UCH-L1 inhibitor]
Max Effect (% rescue) [1]: 21%
EC50 [2]: 0.5 µM

O=S(=O)([O-])[O-].[O]=[V+2] [Vanadyl]
Max Effect (% rescue) [1]: 19%
EC50 [2]: 0.6 µM

Reference: US20080044390A1, “Methods and compositions for the treatment of neurodegenerative disorders” (priority 2006, published 2008)
